Numbered stars: 1 amine (or outer) side, 2 acyl side, 3 side chain; on linkers, the order of the positions; unused ones are H or OH. Bridge positions count the residues as written; N and C are the ends. Square brackets hold non-standard residues; d marks the D form. Peptide text beside a SMILES is read from it. I, II: the chains in the order shown. Actinocin(9to1) = Cc1c2oc3c(C)ccc(C(=O)[*:1])c3nc-2c(C(=O)[*:2])c(N)c1=O; NMeV = CN[C@H](C(=O)O)C(C)C; Sar = CNCC(=O)O
Assays:
Format in all cases: cell-based
[1] = tested on: polymorphonuclear leucocytes; experiment: DNA damage induced by manganese dioxide (MnO2) and protection by redistilled cow's urine distillate; details: Table 4; MnO2 20 μl alone (positive control)
Procedure: (§1) To 5 ml of whole blood 15 ml of solution A is added, mixed well and kept between 2 and 4° C. for 30 minutes. The mixture was centrifuged at 800×g for 10 minutes. The supernatant is discarded, the pellet was washed with balanced salt solution and washing is discarded after centrifugation at 800×g for 10 minutes. This step was done twice. The pellet comprises of peripheral polymorphonuclear leukocytes (PMNs) which are suspended in predetermined amount of solution B.
(§2) The volume in each tube was made up to 2 ml by adding BSS solution. The mixture is incubated at 37° C. for 1 hr in 5% CO2 incubator with 95% humidity. After incubation, 5 ml of ice cold 0.9% NaCl was added in each tube, centrifuged at 800 g for 10 minutes and the supernatant is discarded. To the pellet in each tube 1.5 ml of solution B was added. The tubes (control and three experimental) are mixed thoroughly and the mixture was equally distributed in the volume of 0.2 ml in 3 tubes designated as B, P and T, then 200 μl of solution C was added. The three tubes B, P & T, were kept in cold (0° C.) for 10 minutes after mixing well in order to lyse the cells. To tube T 400 μl of solution E was added. Thereafter, 200 μl of solution D was added to all the tubes B, P and T. The tubes were kept at 0° C. for 30 minutes. Thereafter, contents of the B tube was sonicated for 30 second three times. B, P and T were further incubated at 20° C. for 1 hr. To B and P tubes 400 μl of solution E was added and the tubes were incubated at 0° C. for 10 minutes. 1.5 ml of solution F are added to all the tubes, homogenized on a vortex shaker and subjected to fluorescence spectrophotometric analyses within 15 minutes with 520 nm excitation and at 590 nm emission. The percentage of double stranded DNA remaining was determined using the following formula. [Krishnamurthi et al. (2003) & Bimboim & Jevcak (1981)].
(§3) [formula] • Where P, B and T are the fluorescence emissions at 590 nm.
(§4) One ml of PMNs suspended in solution B containing around 1×10^6 cells were taken in four tubes A, B, C and D. To tube B, 60 μl of redistilled cow urine distillate (RCUD) was added and incubated at 37° C. for 10 minutes.
(§5) To tube A only 60 μl of RCUD was added; the volume was made up with BSS. The mixture was incubated at 37° C. for 1 hr in 5% CO2 incubator with 95% humidity. The rest of the protocol was followed as described under C and D.

[2] = tested on: polymorphonuclear leucocytes; experiment: DNA damage induced by hydrogen peroxide (H2O2) and protection by redistilled cow's urine distillate
Procedure: as §1
as §2, with “formula.” for “formula. [Krishnamurthi et al. (2003) & Bimboim & Jevcak (1981)].”
as §3, §4, §5

[3] = tested on: polymorphonuclear leucocytes; experiment: DNA damage induced by actinomycin D and protection by redistilled cow's urine distillate; details: Table 2; Actinomycin D alone (positive control)
Procedure: as §1, §2, §3, §4, §5

[4] = Table 3, H2O2 alone (positive control)
[5] = Table 5, H2O2 10 μl alone (positive control)
[6] = Table 6, H2O2 10 μl alone (positive control)

SMILES: [O]=[Mn]=[O] [Manganese dioxide (MnO2), Manganese dioxide]
- Mean, percentage of double stranded DNA remaining [1]: 21 percentage
- Set I, percentage of double stranded DNA remaining [1]: 22 percentage
- Set II, percentage of double stranded DNA remaining [1]: 30 percentage
- Set III, percentage of double stranded DNA remaining [1]: 22 percentage
- Set IV, percentage of double stranded DNA remaining [1]: 15 percentage
- Set V, percentage of double stranded DNA remaining [1]: 16 percentage

SMILES: OO [Hydrogen Peroxide (H2O2), Hydrogen Peroxide]
- Mean, percentage of double stranded DNA remaining [2, 4]: 31 percentage
- Set I, percentage of double stranded DNA remaining [2, 4]: 20 percentage
- Set II, percentage of double stranded DNA remaining [2, 4]: 29 percentage
- Set III, percentage of double stranded DNA remaining [2, 4]: 24 percentage
- Set IV, percentage of double stranded DNA remaining [2, 4]: 43 percentage
- Set V, percentage of double stranded DNA remaining [2, 4]: 38 percentage
- Mean, percentage of double stranded DNA remaining [2, 5]: 26 percentage
- Set I, percentage of double stranded DNA remaining [2, 5]: 24 percentage
- Set II, percentage of double stranded DNA remaining [2, 5]: 24 percentage
- Set III, percentage of double stranded DNA remaining [2, 5]: 24 percentage
- Set IV, percentage of double stranded DNA remaining [2, 5]: 33 percentage
- Set V, percentage of double stranded DNA remaining [2, 5]: 24 percentage
- Mean, percentage of double stranded DNA remaining [2, 6]: 26 percentage
- Set I, percentage of double stranded DNA remaining [2, 6]: 24 percentage
- Set II, percentage of double stranded DNA remaining [2, 6]: 24 percentage
- Set III, percentage of double stranded DNA remaining [2, 6]: 24 percentage
- Set IV, percentage of double stranded DNA remaining [2, 6]: 33 percentage
- Set V, percentage of double stranded DNA remaining [2, 6]: 24 percentage

SMILES: Cc1c2oc3c(C)ccc(C(=O)N[C@@H]4C(=O)N[C@H](C(C)C)C(=O)N5CCC[C@H]5C(=O)N(C)CC(=O)N(C)[C@@H](C(C)C)C(=O)O[C@@H]4C)c3nc-2c(C(=O)N[C@@H]2C(=O)N[C@H](C(C)C)C(=O)N3CCC[C@H]3C(=O)N(C)CC(=O)N(C)[C@@H](C(C)C)C(=O)O[C@@H]2C)c(N)c1=O [Actinomycin D] (I: T[dV]P[Sar][NMeV] / II: T[dV]P[Sar][NMeV]; ester I:1-I:C, II:1-II:C; linker I:N-II:N via Actinocin(9to1))
- Mean, percentage of double stranded DNA remaining [3]: 38 percentage
- Set I, percentage of double stranded DNA remaining [3]: 40 percentage
- Set II, percentage of double stranded DNA remaining [3]: 38 percentage
- Set III, percentage of double stranded DNA remaining [3]: 44 percentage
- Set IV, percentage of double stranded DNA remaining [3]: 28 percentage
- Set V, percentage of double stranded DNA remaining [3]: 39 percentage

Reference: US7718360B2, “Composition (RCUD) for protecting and/or repairing DNA from oxidative damages and a method thereof” (Council of Scientific & Industrial Research, priority 2003, dated 2010)
